Experimental data taken from patent US10774092B2 (SALK INSTITUTE FOR BIOLOGICAL STUDIES, priority 2014, dated 2020).

Assays:
[1] = tested on: PC3 prostate-cancer cell line stably expressing GFP-LC3; assay: GFP-LC3 puncta high-throughput microscopy; format: cell-based, human; conditions: control siRNA cells, 1 μM mTOR catalytic inhibitor for 4 hr
Procedure: At 48 hr after RNAi transfection, the cells were treated with 1 μM of the catalytic mTOR inhibitors AZD8055 or INK128 for 4 hr and assessed for the presence of GFP-LC3 puncta. The average number of GFPLC3 puncta and SD for each siRNA and drug treatment are shown. SRC, c-Src; c-Src kinase, CSK.
(§1) To test the ability of compound 14 to block autophagy and cell survival, initial studies were performed in A549 lung cancer cells, which are highly sensitive to mTOR inhibition. […] Next, we genetically assessed the requirement for ULK1 versus other kinases inhibited by compound 14 to induce autophagy after pharmacological mTOR inhibition. A robust high-throughput microscopy method for quantifying GFP-LC3 puncta was established using a PC3 prostate-cancer cell line stably expressing a GFP-LC3 construct. Using this assay, we performed a focused RNAi analysis of the top 20 kinases identified in the DiscovRx screen as best binding to compound 14. […] Strikingly, of the 18 kinases tested, only one kinase siRNA, ULK1, nearly fully abolished the LC3 puncta induced by the mTOR inhibitors (FIG. 9D).

A549 lung cancer cells = assay: Cyto-ID autophagy dye detection of autophagic vacuoles; format: cell-based
Procedure: FIG. 9E is an immunoflourescence imaging of A549 cells treated in the presence or absence of 5 μM compound 14 for 2 hr followed by 4 μM of the mTOR catalytic inhibitor AZD8055 for 24 hr. Autophagic vacuoles were detected using the Cyto-ID autophagy detection kit and are visualized in green, while cell nuclei were counterstained by DAPI and are visualized in blue.
as §1

ULK1 = ULK1 (Homo sapiens, UniProt O75385); assay: ULK1 inhibition assay (Table 1); format: biochemical; conditions: * = tested as a mixture of regioisomers
Chain of ULK1 (O75385 whole entry, looked up): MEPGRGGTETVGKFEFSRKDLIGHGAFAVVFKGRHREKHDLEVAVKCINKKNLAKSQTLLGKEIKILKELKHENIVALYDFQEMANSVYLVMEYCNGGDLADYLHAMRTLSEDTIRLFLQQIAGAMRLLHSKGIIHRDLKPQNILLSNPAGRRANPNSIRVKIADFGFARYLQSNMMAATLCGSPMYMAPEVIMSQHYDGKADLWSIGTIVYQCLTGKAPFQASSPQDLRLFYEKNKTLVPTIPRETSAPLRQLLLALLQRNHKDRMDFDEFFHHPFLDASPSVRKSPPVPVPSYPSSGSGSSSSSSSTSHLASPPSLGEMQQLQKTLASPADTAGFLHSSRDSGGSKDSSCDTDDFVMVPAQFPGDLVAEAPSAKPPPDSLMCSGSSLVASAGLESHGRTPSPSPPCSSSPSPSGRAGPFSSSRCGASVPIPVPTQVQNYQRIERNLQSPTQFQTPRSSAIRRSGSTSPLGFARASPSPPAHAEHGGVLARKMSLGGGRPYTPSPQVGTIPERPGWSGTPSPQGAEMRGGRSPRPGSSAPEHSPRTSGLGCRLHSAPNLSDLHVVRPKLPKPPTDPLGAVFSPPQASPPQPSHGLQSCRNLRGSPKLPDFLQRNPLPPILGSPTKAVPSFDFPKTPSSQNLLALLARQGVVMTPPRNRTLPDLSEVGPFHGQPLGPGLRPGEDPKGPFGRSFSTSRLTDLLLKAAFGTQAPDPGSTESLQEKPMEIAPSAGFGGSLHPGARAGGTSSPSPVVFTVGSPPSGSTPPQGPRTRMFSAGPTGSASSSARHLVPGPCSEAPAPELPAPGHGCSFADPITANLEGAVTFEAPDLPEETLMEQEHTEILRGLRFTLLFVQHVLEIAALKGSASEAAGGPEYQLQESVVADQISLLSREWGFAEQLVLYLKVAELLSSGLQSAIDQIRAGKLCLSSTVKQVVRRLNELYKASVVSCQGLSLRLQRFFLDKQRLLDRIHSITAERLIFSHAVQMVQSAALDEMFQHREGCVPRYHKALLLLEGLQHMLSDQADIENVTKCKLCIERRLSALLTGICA

endogenous ULK1 activity = assay: mobility shift of endogenous Beclin1 and Atg13 (endogenous ULK1 activity) in MEFs; format: cell-based, mouse; conditions: WT MEFs, 10 μM co-treatment, 1 hr
Procedure: FIG. 7D: WT or Ulk1/Ulk2 double knockout mouse embryonic fibroblasts (MEFs) were treated with fresh media (Dulbecco's modified Eagle medium [DMEM] containing 10% FBS) containing 1-μM INK128, 1-μM AZD8055, or DMSO or with starvation media (EBSS) in the presence or absence of 10 μM compound 14. Cellular lysates were isolated after 1 hr of treatment and immunoblotted with the indicated antibodies. Asterisk denotes non-specific band.
We next examined whether compound 14 inhibits endogenous ULK1 activity. To activate endogenous ULK1, we treated MEFs with either amino acid starvation media (Earle's balanced salt solution [EBSS]) or the mTOR ATP-competitive inhibitors INK128 or AZD8055. In WT MEFs, we observed a mobility shift in endogenous Beclin1 and Atg13 in response to EBSS starvation media or the mTOR catalytic inhibitors, which was abolished in Ulk1/2-deficient MEFs (FIG. 7D). […] In certain embodiments, the mobility shifts observed in endogenous Beclin1 and Atg13 induced by mTOR inhibitors and starvation media reflect phosphorylation of endogenous Beclin1/Atg13 by endogenous ULK1/2 as they only occur in WT but not Ulk1/2-deficient MEFs.

Structure (SMILES)	induction in GFP-LC3 puncta formation [1] [fold]	IC50 (ULK1) [nM]	also measured
COc1ccc(-c2ccc3c(N4CCOC[C@@H]4C)nc(N4CCOC[C@@H]4C)nc3n2)cc1CO [AZD8055, (5-(2,4-bis((S)-3-methylmorpholino)pyrido[2,3-d]pyrimidin-7-yl)-2-methoxyphenyl)methanol, reference compound]	2		autophagy induction (Cyto-ID dye accumulation) (A549 lung cancer cells; AZD8055 alone): induced robust autophagy
O=C(C1CC1)N(C(=O)C1CC1)c1ccc(Nc2ncc(C(F)(F)F)c(NC3CC3)n2)cc1 [Example 311, N-(cyclopropanecarbonyl)-N-(4-((4-(cyclopropylamino)-5-(trifluoromethyl)pyrimidin-2-yl)amino)phenyl)cyclopropanecarboxamide]		< 200	
O=C(Nc1ccc(Nc2ncc(C(F)(F)F)c(NC3CC3)n2)cc1)C1CC1 [Example 312, N-(4-((4-(cyclopropylamino)-5-(trifluoromethyl)pyrimidin-2-yl)amino)phenyl)cyclopropanecarboxamide]		< 200	
CC(C)n1nc(-c2ccc3oc(N)nc3c2)c2c(N)ncnc21 [INK128, 3-(2-amino-5-benzoxazolyl)-1-(1-methylethyl)-1H-pyrazolo[3,4-d]pyrimidin-4-amine]	2		
CNC(=O)c1ccccc1Nc1nc(Nc2cc(OC)c(OC)c(OC)c2)ncc1Br [compound 14, 2-(5-bromo-2-(3,4,5-trimethoxyphenylamino)pyrimidin-4-ylamino)-N-methylbenzamide]			effect on AZD8055-induced autophagy (Cyto-ID dye accumulation) (A549 lung cancer cells; 5-μM 6965 with AZD8055): strongly suppressed; EBSS and mTOR-inhibitor induced mobility shift in Beclin1 and Atg13 (endogenous ULK1 activity): inhibited
